The values that follow are results of earlier work, collected in patent US20120071554A1, “DEUTERATED 2-PROPYLPENTANOIC ACID COMPOUNDS” (priority 2008, published 2012).

On to `CCCC(CCC)C(=O)O` [Valproate, sodium hydrogen bis(2-propylpentanoate)], for which, under “adult patients on monotherapy”, the “administered dose excreted in the urine as the glucuronide conjugate” value was 30-50%, the “dose excreted as products of other oxidative mechanisms” value is given as 15-20% and the “dose excreted as the products of mitochondrial beta-oxidation” value is given as “over 40%”. Also, the “dose excreted unchanged in the urine” value (in vivo) is “Less than 3%”. Besides, the “increase of the valproate free-fraction” value (pediatric patients co-dosed with valproate and aspirin, inhibition of beta-oxidation pathway) was 4 fold.
